Consider 68 molecules from PubChem BioAssay AID1361 (SRMLSC, 2008).

Calls of active or inactive are those of the source. The rule behind the calls is not given here.

A short description of the assay: mitochondrial fusion inhibitors, confirmation, cell-based, chemical genetic, wild-type and mutant (AID 1361). Particulars: Cell-based mitochondrial fusion phenotype, imaging.
Where [1] appears, read: mutant cells, measured here: mutant cell line IC50.

In the case of `CCc1nnc(NC(=O)c2cccc(C(=O)Nc3nnc(CC)s3)n2)s1`, the IC50 (commonly the concentration needed to halve the response being measured) was 23.8 µM (WT cells) and greater than 25 µM under setting [1].

Turning to `Cc1ccc(C(=O)NCc2ccc(N3CCN(C(=O)OC(C)(C)C)CC3)cc2)cc1`, the IC50 is, setting by setting: (WT cells) > 25 µM (inactive); under setting [1], greater than 25 µM.

For the molecule `COCCCNC(=O)CS(=O)(=O)Cc1nc(-c2cccc(OC)c2)oc1C`, the IC50 is > 25 µM (inactive) (WT cells) and greater than 25 µM under setting [1].

With `COc1cc2c(cc1NC(=O)CSc1nc3ccccc3[nH]1)oc1ccccc12`, the IC50 is 11.2 µM (WT cells) and greater than 25 µM under setting [1].

For the molecule `COc1ccc(-c2nsc3c(N4CCCCC4C)ncnc23)cc1` (stereo unspecified), the IC50 is, setting by setting: (WT cells) 18.9 µM; under setting [1], greater than 25 µM.

Turning to `CCOC(=O)Cc1c(Sc2ccccc2)c2cc(C)ccc2n1C`, the IC50 runs as follows: (WT cells) 12.3 µM; under setting [1], greater than 25 µM.

`CCCCCC(=O)Nc1cc(N(C)C)nc2ccccc12`: the IC50 reads like this: (WT cells) > 25 µM (inactive); under setting [1], greater than 25 µM.

For `O=C(CCc1ccccc1)NC(=S)Nc1cccc(Br)c1`, the IC50 is 13.7 µM (WT cells) and 21.4 µM under setting [1].

On to `Cc1cc(C)n(CC(O)Cn2c3ccc(Cl)cc3c3cc(Cl)ccc32)c(=O)n1` (stereo unspecified), for which the IC50 was 16.6 µM (WT cells) and greater than 25 µM under setting [1].

As to `COc1ccc(OCC(O)CNCc2ccco2)cc1` (stereo unspecified), the IC50 is > 25 µM (inactive) (WT cells) and greater than 25 µM under setting [1].

`Cc1cccc(N2CCN(C(=O)c3ccc(Cl)c(S(=O)(=O)NCc4ccco4)c3)CC2)c1C`: the IC50 (WT cells) is > 25 µM (inactive) and the IC50 under setting [1] is greater than 25 µM.

`O=C(NC(=S)Nc1ccccc1N1CCCCC1)c1ccco1`: the IC50 is > 25 µM (inactive) (WT cells) and 23 µM under setting [1].

As for `Cc1ccc2c(c1)C1CN(C)CCC1N2C(=O)c1cn(-c2ccccc2)nc1-c1ccccc1` (stereo unspecified), the IC50 is 23.6 µM (WT cells) and greater than 25 µM under setting [1].

As to `N#Cc1nc(-c2ccco2)oc1NCc1ccc(F)cc1`, the IC50 by setting is: (WT cells) > 25 µM (inactive); under setting [1], greater than 25 µM.

For `O=C(CN1CCCCC1)Nc1ccc(Br)cc1C(=O)c1ccccc1Cl`, the half-inhibitory concentration (IC50) (WT cells) was 12 µM and the IC50 under setting [1] was greater than 25 µM.

As to `O=C(Nc1nnc(C2CC2)o1)c1ccc(S(=O)(=O)N2CCCc3ccccc32)cc1`, the IC50 (WT cells) was 13.5 µM and the concentration for half-maximal inhibition (IC50) under setting [1] came to 20.8 µM.

On to `COc1ccc(C(C(=O)Nc2ccc(F)cc2)N(C(=O)Cn2nnc3ccccc32)C2CC2)cc1` (stereo unspecified), for which the IC50 is, setting by setting: (WT cells) > 25 µM (inactive); under setting [1], greater than 25 µM.

With `CCOC(=O)c1c(C)[nH]c(C)c1C(=O)COC(=O)c1cc2ccccc2cc1O`, the IC50 by setting is: (WT cells) 17.2 µM; under setting [1], greater than 25 µM.

Consider `c1ccc(Cn2c(CNc3nc4ccccc4n3CCN3CCCCC3)nc3ccccc32)cc1`, for which the IC50 (WT cells) is > 25 µM (inactive) and the 50% inhibitory concentration (IC50) under setting [1] was greater than 25 µM.

Consider `COc1ccc(CCn2nnnc2C(CC(C)C)N2CCN(c3ncccn3)CC2)cc1OC` (stereo unspecified), for which the IC50 is > 25 µM (inactive) (WT cells) and greater than 25 µM under setting [1].

With `CS(=O)(=O)N(CC(=O)NCc1ccc2c(c1)OCO2)c1ccc(Cl)cc1`, the IC50 is, setting by setting: (WT cells) > 25 µM (inactive); under setting [1], greater than 25 µM.

Turning to `c1ccc(CC2CCN(c3nnnn3-c3ccccc3)CC2)cc1`, the IC50 is > 25 µM (inactive) (WT cells) and greater than 25 µM under setting [1].

On to `COC(=O)c1cn(C(=O)OC)c2ccccc12`, for which the IC50 (WT cells) is > 25 µM (inactive) and the concentration for half-maximal inhibition (IC50) under setting [1] was greater than 25 µM.

Regarding `O=C(/C(=N\O)n1cncn1)c1ccc(Br)cc1Br`, the IC50 reads like this: (WT cells) > 25 µM (inactive); under setting [1], greater than 25 µM.

Turning to `COc1ccccc1N1CCN(CC(=O)Nc2ccc(Cl)c(C(F)(F)F)c2)CC1`, the half-maximal inhibitory concentration (IC50) is 20.2 µM (WT cells) and greater than 25 µM under setting [1].

`O=C(CN1CCN(c2ccccn2)CC1)N1c2ccccc2Sc2ccc(C(F)(F)F)cc21`: the 50% inhibitory concentration (IC50) was 16 µM (WT cells) and greater than 25 µM under setting [1].

For `COc1cccc(-c2ccc(C#N)c(OC(=O)c3c(Cl)cccc3Cl)n2)c1`, the IC50 reads like this: (WT cells) > 25 µM (inactive); under setting [1], greater than 25 µM.

With `CCOC(=O)c1c(NC(=O)OC)sc(C(=O)N(C)C)c1C`, the IC50 (WT cells) is > 25 µM (inactive) and the 50% inhibitory concentration (IC50) under setting [1] was greater than 25 µM.

For the molecule `Cc1cccc(-c2nnc(SCc3ccccc3)o2)c1`, the IC50 (WT cells) is > 25 µM (inactive) and the half-maximal inhibitory concentration (IC50) under setting [1] is greater than 25 µM.

`CCOC(=O)c1cc(-c2ccc3c(c2)OCO3)nc2onc(C)c12`: the IC50 was > 25 µM (inactive) (WT cells) and greater than 25 µM under setting [1].

With `CCC(CC)C(=O)c1c[nH]c(C(=O)NCCCN2CCOCC2)c1`, the IC50 reads like this: (WT cells) > 25 µM (inactive); under setting [1], greater than 25 µM.

For the molecule `C=C(C)C1CC=C(C)/C(=N\NC(=S)Nc2ccc(C)cc2)C1` (stereo unspecified), the IC50 is > 25 µM (inactive) (WT cells) and greater than 25 µM under setting [1].

As to `COc1ccc(C2CC(c3ccc(Br)cc3)=NN2C(=O)c2cccnc2)cc1` (stereo unspecified), the IC50 (WT cells) is 18.2 µM and the 50% inhibitory concentration (IC50) under setting [1] was greater than 25 µM.

For the molecule `N#Cc1sc2nc(C3CC3)cc(-c3ccc(Cl)cc3)c2c1N`, the IC50 is 11.7 µM (WT cells) and 19.5 µM under setting [1].

Consider `Cc1oc(-c2ccccc2)nc1CN1C(=O)CN=C(c2ccccc2)c2ccccc21`, for which the IC50 by setting is: (WT cells) > 25 µM (inactive); under setting [1], greater than 25 µM.

Turning to `Cc1ccccc1NC(=O)CNc1ccccc1N1CCCCC1`, the IC50 reads like this: (WT cells) > 25 µM (inactive); under setting [1], greater than 25 µM.

For the molecule `Cc1cc(Br)ccc1NC(=O)CN1C(=O)C2C3CC(c4ccccc4)C(C3)C2C1=O` (stereo unspecified), the 50% inhibitory concentration (IC50) runs as follows: (WT cells) 20.4 µM; under setting [1], greater than 25 µM.

On to `Cc1cc(C)nc(N2CCCC(C(=O)NCc3cccs3)C2)n1` (stereo unspecified), for which the IC50 is, setting by setting: (WT cells) > 25 µM (inactive); under setting [1], greater than 25 µM.

`O=C(CCSc1ccc(Cl)cc1)NC12CC3CC(CC(C3)C1)C2`: the IC50 is, setting by setting: (WT cells) 13.1 µM; under setting [1], greater than 25 µM.

Turning to `COc1ccccc1CN=Cc1[nH]c2ccc(Br)c(Cl)c2c1O`, the IC50 runs as follows: (WT cells) > 25 µM (inactive); under setting [1], greater than 25 µM.

As to `CN1CCN(CCCNC(=O)c2ccc(/C=C3/Sc4ccccc4N(Cc4cccc(Cl)c4)C3=O)cc2)CC1`, the IC50 (WT cells) is 12.1 µM and the IC50 under setting [1] was greater than 12.5 µM.

On to `CCS(=O)(=O)Nc1ccc(-c2cc(-c3ccccc3)c3cc(C)ccc3n2)cc1`, for which the 50% inhibitory concentration (IC50) (WT cells) was 7.26 µM and the IC50 under setting [1] is greater than 25 µM.

`O=c1[nH]c(=O)n(Cc2ccco2)c2c1C(C(F)(F)F)(C(F)(F)F)N=C(Cc1ccccc1)N2`: the IC50 runs as follows: (WT cells) > 25 µM (inactive); under setting [1], greater than 12.5 µM.

Regarding `C/C1=C\[C@@H](C)C/C=C/[C@H]2[C@@H]3O[C@]3(C)[C@@H](C)[C@H]3[C@H](Cc4c[nH]c5ccccc45)NC(=O)[C@]32C(=O)/C=C/C(=O)[C@@H]1O`, the IC50 is, setting by setting: (WT cells) 19 µM; under setting [1], greater than 25 µM.

For the molecule `CCCn1c(N2CCC(Cc3ccccc3)CC2)nc2c1c(=O)[nH]c(=O)n2C`, the IC50 (WT cells) is > 25 µM (inactive) and the IC50 under setting [1] was greater than 25 µM.

As for `Cc1ccc(-c2ncccc2OC(=O)C23CC4CC(CC(C4)C2)C3)cc1`, the IC50 was 18.8 µM (WT cells) and greater than 25 µM under setting [1].

Consider `COc1ccc(-c2nc(-c3ccccc3)[nH]c(=O)c2C#N)cc1`, for which the IC50 was > 25 µM (inactive) (WT cells) and greater than 25 µM under setting [1].

Take `CC[n+]1c(SC)ccc2cc(OC)ccc21`: the 50% inhibitory concentration (IC50) is, setting by setting: (WT cells) 11.5 µM; under setting [1], greater than 25 µM.

Regarding `c1csc(C(c2nnnn2C2CCCC2)N2CCCC3(CCCCC3)C2)c1` (stereo unspecified), the 50% inhibitory concentration (IC50) is 4.94 µM (WT cells) and greater than 25 µM under setting [1].

For the molecule `COc1ccc(-n2ncc3c(NCc4ccco4)ncnc32)cc1`, the IC50 was > 25 µM (inactive) (WT cells) and greater than 25 µM under setting [1].

With `COc1ccc(C(=O)NN(C)c2nc(-c3ccccc3)nnc2C(F)(F)F)cc1`, the IC50 is > 25 µM (inactive) (WT cells) and greater than 25 µM under setting [1].

Take `COCCCNC(=O)c1cccc(C(=O)NCCCOC)c1`: the IC50 (WT cells) was > 25 µM (inactive) and the IC50 under setting [1] was greater than 25 µM.

In the case of `S=C(NCCNCc1ccccc1)NC1CCCCC1`, the half-maximal inhibitory concentration (IC50) is 13.6 µM (WT cells) and greater than 25 µM under setting [1].

For the molecule `Cc1ccc(-c2nc(N)sc2-c2ccc(C)cc2)cc1`, the IC50 (WT cells) was 9.96 µM (inactive) and the concentration for half-maximal inhibition (IC50) under setting [1] came out at 9.46 µM.

On to `COc1ccccc1C1(CCNS(=O)(=O)c2ccc(C)cc2)CCOC(C(C)C)C1` (stereo unspecified), for which the IC50 was 21 µM (WT cells) and greater than 25 µM under setting [1].

Regarding `CCSc1nnc(NC(=O)COc2ccc3ccccc3c2)s1`, the IC50 reads like this: (WT cells) > 25 µM (inactive); under setting [1], greater than 25 µM.

For `c1ccc2c(c1)[nH]c1c(N3CCCC3)ncnc12`, the IC50 by setting is: (WT cells) > 25 µM (inactive); under setting [1], greater than 25 µM.

`Cc1ccc(C2=NN(S(=O)(=O)c3ccccc3)C(c3ccccc3O)C2)cc1` (stereo unspecified): the half-maximal inhibitory concentration (IC50) was 3.89 µM (WT cells) and 24.4 µM under setting [1].

Take `O=S(=O)(NCC(Nc1ccc(Cl)cc1)c1ccccc1)c1ccccc1` (stereo unspecified): the 50% inhibitory concentration (IC50) by setting is: (WT cells) 13.9 µM; under setting [1], greater than 25 µM.

Take `COc1ccc(C(C)(C)C)cc1NC(=O)Nc1ccc2c(c1)OCO2`: the 50% inhibitory concentration (IC50) is 9.81 µM (WT cells) and 23.3 µM under setting [1].

As for `O=C(NCC(c1cccnc1)N1CCOCC1)c1ccco1` (stereo unspecified), the IC50 by setting is: (WT cells) > 25 µM (inactive); under setting [1], greater than 25 µM.

Take `CCOC(=O)c1c(-c2ccc(OC)cc2)csc1/N=C/C1=C(O)CCCC1=O`: the IC50 reads like this: (WT cells) > 25 µM (inactive); under setting [1], greater than 25 µM.

As for `CCOC(=O)C1CCCN(C(=O)CS(=O)(=O)Cc2ccccc2)C1` (stereo unspecified), the IC50 runs as follows: (WT cells) > 25 µM (inactive); under setting [1], greater than 25 µM.

Take `CCc1c(C)nc2[nH]nc(-c3ccccc3)n2c1=O`: the IC50 is > 25 µM (inactive) (WT cells) and greater than 25 µM under setting [1].

Consider `Cc1nc(N2CCC(C)CC2)c2c(C)c(C(=O)Nc3cc(F)ccc3C)sc2n1`, for which the IC50 runs as follows: (WT cells) 19.7 µM; under setting [1], greater than 25 µM.

In the case of `CCCC[C@@H]1C[C@H]1[C@@H](NC(=O)c1ccco1)c1ccc(Cl)cc1`, the concentration for half-maximal inhibition (IC50) by setting is: (WT cells) 21.4 µM; under setting [1], greater than 25 µM.

As for `CC(C)(C)n1nnnc1C(c1cccs1)N1CCCC2(CCCCC2)C1` (stereo unspecified), the IC50 by setting is: (WT cells) 4.86 µM; under setting [1], greater than 25 µM.

For the molecule `CC(C)(C)[C@@H]1C=C(C(=O)N2CCN(Cc3ccccc3)CC2)O[C@H](OCc2ccc(CO)cc2)C1`, the concentration for half-maximal inhibition (IC50) runs as follows: (WT cells) 23.8 µM; under setting [1], greater than 25 µM.
